Values quoted from earlier work as cited in US20140370086A1, “SUBLINGUAL IMMUNOTHERAPY WITH REDUCED ORAL ITCHINESS” (priority 2013, published 2014).

Conditions: at high doses

With `O=C(O)c1cc(=O)c2c(OCC(O)COc3cccc4oc(C(=O)O)cc(=O)c34)cccc2o1` [Cromolyn, Cromolyn sodium (cromoglicic acid)] as the molecule, how does the toxicity read?
Its toxicity is “no toxicity at high doses”.
